Data as given in patent US20090226395A1, “Pharmaceutical compositions of beta-lapachone and beta-lapachone analogs with improved tumor targeting potential” (ArQule, Inc., priority 2004, published 2009).

Experiments:
[1] = Hydrolytic release of β-lapachone or ketal from poly-L-glutamate conjugates, monitored by HPLC; format: physicochemical
Excerpt: […] The complete release of 2,2-dimethyl-3,4-dihydro-2H-benzo[h]chromene-5,6-dione from the conjugate is achieved within 2-3 days as monitored by HPLC. In addition to the 2,2-dimethyl-3,4-dihydro-2H-benzo[h]chromene-5,6-dione peak, two additional peaks are detected in the HPLC chromatogram. These peaks are believed to be products of the degradation of 2,2-dimethyl-3,4-dihydro-2H-benzo[h]chromene-5,6-dione and an alternate hydrolysis product of conjugate. The concentration of released 2,2-dimethyl-3,4-dihydro-2′-1-benzo[h]chromene-5,6-dione is calculated by comparing the peak areas with the previously obtained calibration curve of 2,2-dimethyl-3,4-dihydro-2H-benzo[h]chromene-5,6-dione standard. […] Loading on the polymer is then calculated as follows: […]
The conjugate is dissolved in water at a concentration of about 0.3 mg/ml and sonicated to facilitate dissolution. […] The concentration of released 2,2-dimethyl-3,4-dihydro-2H-benzo[h]chromene-5,6-dione is determined by HPLC and the quantity calculated by comparing the peak areas with a previously obtained calibration curve of 2,2-dimethyl-3,4-dihydro-2H-benzo[h]chromene-5,6-dione standard, as described above in Example 10. […]

DLD-1 cells = experiment: MTS cell viability assay, DLD-1 cells; format: cell-based
Procedure: (§1) Cell viability is determined by measuring the activity of dehydrogenase enzymes in metabolically active cells using a tetrazolium compound, MTS. The assay is performed as described in Promega Technical Bulletin No. 169 (CellTiter 96 Aqueous Non-Radioactive Cell Proliferation Assay). Two cell lines, DLD-1 and NCM-460 are assayed (see, e.g., Table 2). Cells are maintained at 37° C., 5% CO2. Adherent cells are maintained DMEM media (4.5 g/L glucose) supplemented with 15% heat-inactivated FBS, 10 mM L-glutamine, and 10 mM Hepes pH 7.5. Suspension cells are maintained in RPMI 1640 media, supplemented with 10% heat-inactivated FBS and 10 mM Hepes pH 7.5. […] Candidate compounds, including the polymer-modified therapeutics to be tested, are serially diluted in the indicated solvents are, further diluted in cell culture media, and then added to cells. […] MTS stock solution (MTS 2 gm/L, PMS […] in PBS) is added to the cells (final concentration MTS […] and PMS 7.67 mg/L) and incubated for 4 hours. […] The IC50 is defined as the concentration of compound that results in a 50% reduction in the number of viable cells as compared to control wells treated with DMSO only (0.33%) and 0.3% SDS, and is calculated using non-linear regression analysis.

NCM-460 cells = experiment: MTS cell viability assay, NCM-460 cells; format: cell-based
Procedure: as §1

[2] = tested on: human peripheral blood mononuclear cells (PBMC); settings: cited from earlier work
[3] = target: T1, human DNA Topoisomerases I (Homo sapiens, UniProt P11387); settings: cited from earlier work
T1 sequence (P11387 1-765): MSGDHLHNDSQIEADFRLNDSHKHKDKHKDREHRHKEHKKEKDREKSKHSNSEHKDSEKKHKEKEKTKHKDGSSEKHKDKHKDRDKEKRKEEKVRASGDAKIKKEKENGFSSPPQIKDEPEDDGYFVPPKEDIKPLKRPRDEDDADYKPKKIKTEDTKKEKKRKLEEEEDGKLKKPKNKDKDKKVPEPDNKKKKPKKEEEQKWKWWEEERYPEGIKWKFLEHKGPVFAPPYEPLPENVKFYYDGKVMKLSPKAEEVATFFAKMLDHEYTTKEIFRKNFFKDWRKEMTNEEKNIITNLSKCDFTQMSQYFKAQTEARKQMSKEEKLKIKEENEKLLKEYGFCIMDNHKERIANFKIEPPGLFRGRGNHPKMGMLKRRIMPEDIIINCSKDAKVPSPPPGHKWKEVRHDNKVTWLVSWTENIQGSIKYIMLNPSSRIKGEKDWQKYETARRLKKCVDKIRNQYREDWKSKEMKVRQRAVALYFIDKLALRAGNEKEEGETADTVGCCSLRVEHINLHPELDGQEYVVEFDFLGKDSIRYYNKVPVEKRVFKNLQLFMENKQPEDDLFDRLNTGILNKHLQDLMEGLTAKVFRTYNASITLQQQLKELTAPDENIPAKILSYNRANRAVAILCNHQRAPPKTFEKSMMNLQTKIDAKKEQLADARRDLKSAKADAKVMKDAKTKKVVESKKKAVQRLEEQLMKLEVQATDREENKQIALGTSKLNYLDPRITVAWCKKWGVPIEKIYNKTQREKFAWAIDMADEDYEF

human cancer cell lines = settings: single agent; typical range; read-out: antineoplastic activity against human cancer cell lines (IC50); cited from earlier work
[4] = target: human DNA Topoisomerases II (Homo sapiens, UniProt P11388); settings: cited from earlier work
Chain of human DNA Topoisomerases II (P11388 whole entry): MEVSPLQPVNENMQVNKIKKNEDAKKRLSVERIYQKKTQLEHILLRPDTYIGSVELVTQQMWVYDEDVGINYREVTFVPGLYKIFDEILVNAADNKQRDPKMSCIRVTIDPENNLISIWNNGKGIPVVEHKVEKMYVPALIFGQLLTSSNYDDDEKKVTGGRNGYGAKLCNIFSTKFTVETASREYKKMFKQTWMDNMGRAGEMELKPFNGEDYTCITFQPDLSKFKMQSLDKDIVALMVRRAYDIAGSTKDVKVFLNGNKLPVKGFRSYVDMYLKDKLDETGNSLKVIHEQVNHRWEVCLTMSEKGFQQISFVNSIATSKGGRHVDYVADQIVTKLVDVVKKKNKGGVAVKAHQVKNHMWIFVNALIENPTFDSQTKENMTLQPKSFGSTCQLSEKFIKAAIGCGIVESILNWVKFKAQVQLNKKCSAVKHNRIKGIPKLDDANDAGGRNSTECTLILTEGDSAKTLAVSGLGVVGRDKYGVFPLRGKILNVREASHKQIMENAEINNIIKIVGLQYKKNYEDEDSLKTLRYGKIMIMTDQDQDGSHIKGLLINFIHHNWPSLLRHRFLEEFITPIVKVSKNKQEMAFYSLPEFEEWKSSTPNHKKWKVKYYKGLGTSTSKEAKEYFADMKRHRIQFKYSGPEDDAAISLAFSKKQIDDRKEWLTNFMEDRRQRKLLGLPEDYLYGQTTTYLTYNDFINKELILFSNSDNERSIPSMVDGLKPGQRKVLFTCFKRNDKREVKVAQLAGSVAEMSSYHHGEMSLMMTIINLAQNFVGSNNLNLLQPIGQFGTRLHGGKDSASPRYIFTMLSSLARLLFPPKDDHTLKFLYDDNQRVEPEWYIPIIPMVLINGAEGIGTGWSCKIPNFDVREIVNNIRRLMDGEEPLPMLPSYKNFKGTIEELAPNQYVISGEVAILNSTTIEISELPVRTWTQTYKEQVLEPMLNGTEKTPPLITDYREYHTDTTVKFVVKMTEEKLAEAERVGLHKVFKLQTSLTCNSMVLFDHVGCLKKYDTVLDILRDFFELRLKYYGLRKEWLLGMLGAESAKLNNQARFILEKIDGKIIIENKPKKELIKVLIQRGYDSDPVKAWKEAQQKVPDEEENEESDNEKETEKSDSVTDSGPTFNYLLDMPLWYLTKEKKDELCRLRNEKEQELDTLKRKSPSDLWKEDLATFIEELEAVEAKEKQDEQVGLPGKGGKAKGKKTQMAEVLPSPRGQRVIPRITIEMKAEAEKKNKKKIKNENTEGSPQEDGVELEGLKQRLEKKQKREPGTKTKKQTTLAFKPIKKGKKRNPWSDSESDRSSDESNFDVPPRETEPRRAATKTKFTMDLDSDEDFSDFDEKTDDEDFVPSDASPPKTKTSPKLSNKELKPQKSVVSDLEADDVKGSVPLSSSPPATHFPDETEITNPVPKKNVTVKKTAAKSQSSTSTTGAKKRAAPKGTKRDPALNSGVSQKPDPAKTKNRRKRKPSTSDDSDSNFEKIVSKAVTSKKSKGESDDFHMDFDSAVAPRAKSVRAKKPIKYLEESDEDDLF

5-(acetyloxy)-2,2-dimethyl-3,4-dihydro-2H-benzo[h]chromen-6-yl glycinate γ-poly-L-glutamate
time for hydrolysis of β-lapachone from the conjugate ([1]; pH 11.4): 20 min
time to complete release of β-lapachone from the conjugate ([1]; phosphate buffer pH 9.6, about 0.1 mg/ml): 2 to 3 days
IC50 (DLD-1 cells; incubation time 20 hours): 4.42 µM
IC50 (DLD-1 cells; incubation time 72 hours): 1.39 µM
IC50 (NCM-460 cells; incubation time 20 hours): 8.12 µM
IC50 (NCM-460 cells; incubation time 72 hours): 3.66 µM

CC1(C)CCC2=C(O1)c1ccccc1C(=O)C2=O [β-lapachone, 3,4-dihydro-2,2-dimethyl-2H-naphtho[1,2-b]pyran-5,6-dione, reference compound]
cytotoxic effects on normal fresh or proliferating human PBMC [2]: No cytotoxic effects were observed
in vitro inhibition of human DNA Topoisomerase I [3]: potent in vitro inhibition
IC50 (DLD-1 cells; Homo sapiens, DLD-1, incubation time 20 hours): 3.13 µM
IC50 (DLD-1 cells; Homo sapiens, DLD-1, incubation time 72 hours): 1.71 µM
IC50 (human cancer cell lines): 1 to 10 µM
in vitro inhibition of human DNA Topoisomerase II [4]: potent in vitro inhibition
IC50 (NCM-460 cells; Homo sapiens, NCM460, incubation time 20 hours): 8.19 µM
IC50 (NCM-460 cells; Homo sapiens, NCM460, incubation time 72 hours): 3.25 µM

(2,2-dimethyl-5-oxo-3,4-dihydro-2H,5H-spiro[benzo[h]chromene-6,2′-[1,3]dioxolan]-4′-yl)methyl γ-poly-L-glutamate sodium
IC50 (DLD-1 cells; incubation time 20 hours): > 100 µM
IC50 (DLD-1 cells; incubation time 72 hours): > 100 µM
IC50 (NCM-460 cells; incubation time 20 hours): > 100 µM
IC50 (NCM-460 cells; incubation time 72 hours): > 100 µM
